Data: patent publication US20260274832A1, “COMPOUNDS AND THEIR USE IN TREATING CANCER” (ASTRAZENECA AB, priority 2023, published 2026)

Key:
[1] = molecular target: T1, AR (AR-full length) in LNCaP cells (Homo sapiens, UniProt P10275, T878A); assay: LNCaP Androgen Receptor Imaging Assay (immunofluorescence of endogenous nuclear AR); type: cell-based; settings: 24 h incubation; for DC50: concentration giving 50% of maximum degradation of AR per curve fit, single experiment or average of two or more; for LNCaP AR Degradation Dmax / Dmax: maximum degradation observed, normalized as % of positive control (prior art AR PROTAC at 3 μM); for Dmax: LNCaP
T1 construct: the prostate cancer cell line LNCaP (expressing AR-full length); endogenous in cells; host or cells: LNCaP
T1 sequence (P10275 whole entry T878A): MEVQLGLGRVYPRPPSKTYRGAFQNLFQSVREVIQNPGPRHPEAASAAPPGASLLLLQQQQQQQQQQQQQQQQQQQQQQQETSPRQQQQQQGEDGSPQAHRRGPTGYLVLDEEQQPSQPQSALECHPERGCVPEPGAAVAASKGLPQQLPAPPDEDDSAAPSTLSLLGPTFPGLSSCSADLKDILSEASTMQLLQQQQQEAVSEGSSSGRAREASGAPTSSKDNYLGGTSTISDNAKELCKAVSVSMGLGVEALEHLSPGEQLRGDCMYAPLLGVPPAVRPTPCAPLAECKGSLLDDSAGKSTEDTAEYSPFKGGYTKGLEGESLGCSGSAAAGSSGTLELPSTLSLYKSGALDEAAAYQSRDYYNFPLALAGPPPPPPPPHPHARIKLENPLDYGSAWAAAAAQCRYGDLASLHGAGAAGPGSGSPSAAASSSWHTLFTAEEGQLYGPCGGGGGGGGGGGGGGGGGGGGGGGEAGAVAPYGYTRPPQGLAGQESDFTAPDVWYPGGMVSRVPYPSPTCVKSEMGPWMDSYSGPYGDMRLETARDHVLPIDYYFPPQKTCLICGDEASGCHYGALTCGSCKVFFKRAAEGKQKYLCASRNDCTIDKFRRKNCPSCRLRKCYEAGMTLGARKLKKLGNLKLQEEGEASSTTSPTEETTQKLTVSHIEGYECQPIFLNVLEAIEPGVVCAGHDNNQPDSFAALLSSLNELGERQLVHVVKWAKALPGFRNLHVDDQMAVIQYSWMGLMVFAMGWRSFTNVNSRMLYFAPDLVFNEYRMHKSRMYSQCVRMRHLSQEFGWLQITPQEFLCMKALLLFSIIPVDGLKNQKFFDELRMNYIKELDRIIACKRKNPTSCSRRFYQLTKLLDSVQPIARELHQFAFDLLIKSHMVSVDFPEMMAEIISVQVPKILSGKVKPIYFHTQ
T1 sequence (Q96SW2 whole entry partner): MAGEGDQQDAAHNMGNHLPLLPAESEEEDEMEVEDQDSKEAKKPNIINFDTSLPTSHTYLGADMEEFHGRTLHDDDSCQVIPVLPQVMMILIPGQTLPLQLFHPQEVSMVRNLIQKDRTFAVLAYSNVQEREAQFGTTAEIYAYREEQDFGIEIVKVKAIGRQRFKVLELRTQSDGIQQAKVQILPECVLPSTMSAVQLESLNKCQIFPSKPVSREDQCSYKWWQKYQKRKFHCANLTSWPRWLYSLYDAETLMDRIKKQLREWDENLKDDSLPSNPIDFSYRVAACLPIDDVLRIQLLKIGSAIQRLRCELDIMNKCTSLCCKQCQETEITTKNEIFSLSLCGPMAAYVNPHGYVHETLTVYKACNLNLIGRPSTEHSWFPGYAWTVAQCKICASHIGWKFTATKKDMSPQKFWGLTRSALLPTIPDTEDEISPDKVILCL
In short: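 Endogenous nuclear AR level was imaged by immunofluorescence after 24 h compound exposure (12-point dose response, 0.3% DMSO, 37° C./5% CO2) in LNCaP cells. Data were expressed as % of a 3 μM prior-art AR PROTAC control and fitted (bell fit where a hook appeared) to give DC50 and maximum degradation Dmax.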

[2] = molecular target: T2, AR (L702H) in LNCaP cells (Homo sapiens, UniProt P10275, L702H/T878A); assay: LNCaP Androgen Receptor L702H Imaging Assay (LNCaP cells engineered by CRISPR/Cas9); type: cell-based; settings: LNCaP cells with AR L702H mutation, 24 h incubation; for DC50: concentration giving 50% of maximum degradation of AR (L702H) per curve fit; for LNCaP AR (L702H) Degradation Dmax / Dmax: maximum degradation observed, normalized as % of positive control; for Dmax: LNCaP
T2 construct: engineered to introduce the mutation L702H into the AR gene using CRISPR/Cas9; endogenous in cells; host or cells: LNCaP cells edited by CRISPR/Cas9 at the AR gene
T2 sequence (P10275 whole entry L702H/T878A): as the sequence (P10275 whole entry T878A) above, with L702H counted along it
T2 sequence (Q96SW2 whole entry partner): as the sequence (Q96SW2 whole entry partner) above
In short: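 AR (L702H) degradation, expressed as DC50 and Dmax from curve fits normalized to a positive degrader control, was measured by high-content imaging of anti-AR immunofluorescence. The engineered LNCaP line was dosed over 12 concentrations for 24 h, 0.3% DMSO final, before PFA fixation.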

Row | Structure (SMILES) | DC50 [1] | LNCaP AR Degradation Dmax [1] | DC50 [2] | LNCaP AR (L702H) Degradation Dmax [2] | Dmax [1] | Dmax [2]
1 | N#Cc1c[nH]c2c(N3CCCC(c4ccc(N5CCC(CN6CCC(n7ccc8c(N9CCC(=O)NC9=O)cccc87)CC6)CC5)nn4)C3)ccc(Cl)c12 (single isomer, unassigned) [Example 122, 4-Chloro-7-[(3S*)-3-{6-[4-({4-[4-(2,4-dioxo-1,3-diazinan-1-yl)-1H-indol-1-yl]piperidin-1-yl}methyl)piperidin-1-yl]pyridazin-3-yl}piperidin-1-yl]-1H-indole-3-carbonitrile] | 93 nM | 85% | 67 nM | 75% | – | –
2 | Cc1ccc(N2CCC(c3ccc(OCCCCN4CCN(c5ccc6c(c5)CN(C5CCC(=O)NC5=O)C6=O)CC4)cc3)C2)c2[nH]cc(C#N)c12 (single isomer, unassigned) [Example 150, 7-{(3S*)-3-[4-(4-{4-[2-(2,6-Dioxopiperidin-3-yl)-1-oxo-2,3-dihydro-1H-isoindol-5-yl]piperazin-1-yl}butoxy)phenyl]pyrrolidin-1-yl}-4-methyl-1H-indole-3-carbonitrile] | 14 nM | – | 893 nM | – | 82% | 50%
3 | Cc1ccc(N2CCC(c3ccc(OCCCCN4CCN(c5ccc6c(c5)CN(C5CCC(=O)NC5=O)C6=O)CC4)cc3)C2)c2[nH]cc(C#N)c12 (single isomer, unassigned) [Example 151, 7-{(3R*)-3-[4-(4-{4-[2-(2,6-Dioxopiperidin-3-yl)-1-oxo-2,3-dihydro-1H-isoindol-5-yl]piperazin-1-yl}butoxy)phenyl]pyrrolidin-1-yl}-4-methyl-1H-indole-3-carbonitrile] | 18 nM | 67% | 497 nM | 42% | – | –
4 | N#Cc1c[nH]c2c(N3CCCC(NC(=O)c4ccc(N5CCC(CN6CCN(c7ccc8c(c7)CN(C7CCC(=O)NC7=O)C8=O)CC6)CC5)cn4)C3)ccc(Cl)c12 (single isomer, unassigned) [Example 180, N-[(3R*)-1-(4-Chloro-3-cyano-1H-indol-7-yl)piperidin-3-yl]-5-[4-({4-[2-(2,6-dioxopiperidin-3-yl)-1-oxo-2,3-dihydro-1H-isoindol-5-yl]piperazin-1-yl}methyl)piperidin-1-yl]pyridine-2-carboxamide] | 3 nM | – | 2 nM | – | 94% | 88%
5 | N#Cc1c[nH]c2c(N3CCCC(NC(=O)c4ccc(N5CCC(CN6CCN(c7ccc8c(c7)CN(C7CCC(=O)NC7=O)C8=O)CC6)CC5)cn4)C3)ccc(Cl)c12 (single isomer, unassigned) [Example 181, N-[(3S*)-1-(4-Chloro-3-cyano-1H-indol-7-yl)piperidin-3-yl]-5-[4-({4-[2-(2,6-dioxopiperidin-3-yl)-1-oxo-2,3-dihydro-1H-isoindol-5-yl]piperazin-1-yl}methyl)piperidin-1-yl]pyridine-2-carboxamide] | 4 nM | 95% | 9 nM | 95% | – | –
6 | N#Cc1c[nH]c2c(N3CCC(c4ccc(N5CCC(CN6CCN(c7ccc8c(c7)CN(C7CCC(=O)NC7=O)C8=O)CC6)CC5)cc4)CC3)ccc(Cl)c12 (centres unmarked) [Example 1, 4-Chloro-7-(4-{4-[4-({4-[2-(2,6-dioxopiperidin-3-yl)-1-oxo-2,3-dihydro-1H-isoindol-5-yl]piperazin-1-yl}methyl)piperidin-1-yl]phenyl}piperidin-1-yl)-1H-indole-3-carbonitrile] | 6 nM | – | 6 nM | – | 99% | 100%
7 | N#Cc1c[nH]c2c(N3CCC(c4ccc(N5CCC(CN6CCN(c7ccc8c(c7)CN(C7CCC(=O)NC7=O)C8=O)CC6)CC5)cc4)CC3)ccc(F)c12 (centres unmarked) [Example 2, 7-(4-{4-[4-({4-[2-(2,6-Dioxopiperidin-3-yl)-1-oxo-2,3-dihydro-1H-isoindol-5-yl]piperazin-1-yl}methyl)piperidin-1-yl]phenyl}piperidin-1-yl)-4-fluoro-1H-indole-3-carbonitrile] | 6 nM | – | 5 nM | – | 96% | 101%
8 | N#Cc1c[nH]c2c(N3CCC(c4ccc(N5CCC(CN6CCC(n7ccc8c(N9CCC(=O)NC9=O)cccc87)CC6)CC5)cc4)CC3)ccc(Cl)c12 [Example 5, 4-Chloro-7-(4-{4-[4-({4-[4-(2,4-dioxo-1,3-diazinan-1-yl)-1H-indol-1-yl]piperidin-1-yl}methyl)piperidin-1-yl]phenyl}piperidin-1-yl)-1H-indole-3-carbonitrile] | 8 nM | – | 12 nM | – | 103% | 110%
9 | N#Cc1c[nH]c2c(N3CCC(c4ccc(N5CCC(CN6CCC(n7ccc8c(N9CCC(=O)NC9=O)cccc87)CC6)CC5)cc4)CC3)ccc(F)c12 [Example 6, 7-(4-{4-[4-({4-[4-(2,4-Dioxo-1,3-diazinan-1-yl)-1H-indol-1-yl]piperidin-1-yl}methyl)piperidin-1-yl]phenyl}piperidin-1-yl)-4-fluoro-1H-indole-3-carbonitrile] | 10 nM | – | 13 nM | – | 100% | 103%
10 | COc1cc(N2CCN(CC3CCN(c4ccc(C5CCN(c6ccc(Cl)c7c(C#N)c[nH]c67)CC5)cc4)CC3)CC2)cc2c1C(=O)N(C1CCC(=O)NC1=O)C2 (centres unmarked) [Example 7, 4-Chloro-7-(4-{4-[4-({4-[2-(2,6-dioxopiperidin-3-yl)-7-methoxy-1-oxo-2,3-dihydro-1H-isoindol-5-yl]piperazin-1-yl}methyl)piperidin-1-yl]phenyl}piperidin-1-yl)-1H-indole-3-carbonitrile] | 9 nM | – | 14 nM | – | 98% | 101%
11 | Cc1ccc(N2CCC(c3ccc(N4CCC(CN5CCC(n6ccc7c(N8CCC(=O)NC8=O)cccc76)CC5)CC4)cc3)CC2)c2[nH]cc(C#N)c12 [Example 8, 7-(4-{4-[4-({4-[4-(2,4-Dioxo-1,3-diazinan-1-yl)-1H-indol-1-yl]piperidin-1-yl}methyl)piperidin-1-yl]phenyl}piperidin-1-yl)-4-methyl-1H-indole-3-carbonitrile] | 29 nM | – | 103 nM | – | 99% | 96%
12 | N#Cc1n[nH]c2c(N3CCC[C@@H](c4ccc(N5CCC(CN6CCC(n7ccc8c(N9CCC(=O)NC9=O)cccc87)CC6)CC5)cc4)C3)ccc(Cl)c12 [Example 9] | 7 nM | – | 9 nM | – | 105% | 106%
13 | N#Cc1n[nH]c2c(N3CCC[C@@H](c4ccc(N5CCC(CN6CCN(c7ccc8c(c7)CN(C7CCC(=O)NC7=O)C8=O)CC6)CC5)cc4)C3)ccc(Cl)c12 (stereo partly drawn) [Example 10, 4-Chloro-7-[(3S)-3-{4-[4-({4-[2-(2,6-dioxopiperidin-3-yl)-1-oxo-2,3-dihydro-1H-isoindol-5-yl]piperazin-1-yl}methyl)piperidin-1-yl]phenyl}piperidin-1-yl]-1H-indazole-3-carbonitrile] | 7 nM | – | 5 nM | – | 96% | 103%
14 | N#Cc1c[nH]c2c(N3CCC[C@@H](c4ccc(N5CCC(CN6CCC(n7ccc8c(N9CCC(=O)NC9=O)cccc87)CC6)CC5)cc4)C3)ccc(Cl)c12 [Example 11] | 9 nM | – | 18 nM | – | 102% | 105%
15 | N#Cc1c[nH]c2c(N3CCC[C@@H](c4ccc(N5CCC(CN6CCN(c7ccc8c(c7)CN(C7CCC(=O)NC7=O)C8=O)CC6)CC5)cc4)C3)ccc(Cl)c12 (stereo partly drawn) [Example 12, 4-Chloro-7-[(3S)-3-{4-[4-({4-[2-(2,6-dioxopiperidin-3-yl)-1-oxo-2,3-dihydro-1H-isoindol-5-yl]piperazin-1-yl}methyl)piperidin-1-yl]phenyl}piperidin-1-yl]-1H-indole-3-carbonitrile] | 6 nM | – | 12 nM | – | 95% | 97%
16 | Cn1c(C2CCN(CC3CCN(c4ccc([C@@H]5CCCN(c6ccc(Cl)c7c(C#N)c[nH]c67)C5)cc4)CC3)CC2)cc2ccc(N3CCC(=O)NC3=O)cc21 [Example 13, 4-Chloro-7-[(3S)-3-{4-[4-({4-[6-(2,4-dioxo-1,3-diazinan-1-yl)-1-methyl-1H-indol-2-yl]piperidin-1-yl}methyl)piperidin-1-yl]phenyl}piperidin-1-yl]-1H-indole-3-carbonitrile] | 7 nM | – | 6 nM | – | 107% | 109%
17 | Cn1c(C2CCN(CC3CCN(c4ccc([C@@H]5CCCN(c6ccc(Cl)c7c(C#N)n[nH]c67)C5)cc4)CC3)CC2)cc2ccc(N3CCC(=O)NC3=O)cc21 [Example 14, 4-Chloro-7-[(3S)-3-{4-[4-({4-[6-(2,4-dioxo-1,3-diazinan-1-yl)-1-methyl-1H-indol-2-yl]piperidin-1-yl}methyl)piperidin-1-yl]phenyl}piperidin-1-yl]-1H-indazole-3-carbonitrile] | 6 nM | – | 9 nM | – | 107% | 112%
